ChEMBL document CHEMBL4699579, “A Peptidyl Inhibitor that Blocks Calcineurin-NFAT Interaction and Prevents Acute Lung Injury” (J Med Chem, 2020)
Active and inactive are the calls of the source. The rule behind the calls is not given here. Positions of bridges follow the written chain, without caps; N, C: chain ends. Non-standard residues stand in square brackets, D forms with d. Residues, ends and D or L forms follow the SMILES beside them. Chains are numbered I, II in the order given. *: point of attachment. 2Nal = N[C@@H](Cc1ccc2ccccc2c1)C(=O)O; Val(3-OH) = CC(C)(O)[C@H](N)C(=O)O; Tle = CC(C)(C)[C@H](N)C(=O)O; X1 = O=C(c1ccnc(Cl)c1Cl)*; AEEA = NCCOCCOCC(=O)O

Columns and labels:
[1] = Stability in 25% human serum assessed as compound degradation at 5 uM at 37 degC incubated for 24 hrs by HPLC analysis; type: ADME, cell-free; conditions: serum, 24 h, 5 µM
HeLa = assay: Toxicity in human HeLa cells assessed as reduction in cell viability up to 25 uM incubated for 72 hrs by MTT assay; type: cell-based
Macrophage [2] = assay: Inhibition of calcineurin-NFATc3 interaction in mouse lung macrophages assessed as reduction in LPS-induced TNFalpha production at 0.1 to 10 uM pre-incubated 4 hrs before LPS stimulation for 8 hrs by ELISA; type: tissue-based; conditions: DISRUPTING AGENT, dose microM 0.1-10, time 12.0 hrs
Macrophage [3] = assay: Inhibition of calcineurin-NFATc3 interaction in mouse lung macrophages assessed as reduction in LPS-induced IL6 production at 0.1 to 10 uM pre-incubated 4 hrs before LPS stimulation for 8 hrs by ELISA; type: tissue-based; conditions: DISRUPTING AGENT, dose microM 0.1-10, time 12.0 hrs
[4] = Clearance in C57BL/6 mouse assessed as clearance time at 5 mg/kg using TMR-labeled compound instilled into both nostrils by flow cytometry; type: ADME, organism-based; conditions: in vivo, inhaled_or_intranasal
Homo sapiens = species: Homo sapiens; assay: Inhibition of GST-tagged Calcineurin (unknown origin) assessed as reduction in phosphatase activity at 50 uM incubated for 30 mins using p-nitrophenyl phosphate substrate
[5] = Toxicity in mouse lung macrophages cells assessed as reduction in cell viability up to 25 uM incubated for 72 hrs by MTT assay; type: tissue-based; conditions: macrophage
Macrophage [6] = assay: Inhibition of calcineurin-NFATc3 interaction in mouse lung macrophages assessed as reduction in LPS-induced IL6 production at 1 uM pre-incubated 4 hrs before LPS stimulation for 8 hrs by ELISA relative to 10 uM CsA; type: tissue-based; conditions: time 12.0 hrs
[7] = Stability in simulated intestinal fluid at 5 uM incubated for 2 hrs by LC/MS/MS analysis
[8] = Drug uptake in human HCT-116 cells spheroids at 5 uM incubated for 4 to 24 hrs by MALDI-TOF-TOF mass spectrometry; type: ADME, cell-based; conditions: hct-116, 5 µM, TDE = time-dependent effect, time 4-24 hrs
[9] = Stability in mouse liver microsomes assessed as compound degradation at 100 uM incubated up to 60 mins in presence of NADPH by LC-MS/MS analysis; type: ADME, Microsome; conditions: 1 h, TDE = time-dependent effect
[10] = Plasma concentration in BALB/c mouse at 5 mg/kg, iv after 2 to 4 hrs by LC-MS/MS analysis; type: ADME, organism-based; conditions: in vivo, time 2-4 hrs
[11] = Plasma concentration in BALB/c mouse at 5 mg/kg, iv after 8 hrs by LC-MS/MS analysis; type: ADME, organism-based
[12] = Drug concentration in BALB/c mouse spleen at 5 mg/kg, iv after 8 hrs by LC-MS/MS analysis; type: ADME, organism-based; conditions: read-out: Drug uptake
[13] = Drug concentration in BALB/c mouse muscle at 5 mg/kg, iv after 8 hrs by LC-MS/MS analysis; type: ADME, organism-based, Muscle tissue; conditions: in vivo
[14] = Drug metabolism in BALB/c mouse spleen at 5 mg/kg, iv after 8 hrs by LC-MS/MS analysis; type: ADME, organism-based; conditions: in vivo
[15] = Drug distribution in BALB/c mouse spleen at 0.6 mg/kg, iv using compound labelled with cyanine-5 measured after 24 hrs by fluorescence based assay; type: ADME, organism-based; conditions: in vivo
[16] = Drug distribution in BALB/c mouse heart at 0.6 mg/kg, iv using compound labelled with cyanine-5 measured after 24 hrs by fluorescence based assay; type: ADME, organism-based; conditions: read-out: Drug uptake
[17] = Drug distribution in BALB/c mouse lymph nodes at 0.6 mg/kg, iv using compound labelled with cyanine-5 measured after 24 hrs by fluorescence based assay; type: ADME, organism-based, Lymph node; conditions: read-out: Drug uptake
[18] = Drug distribution in BALB/c mouse plasma at 0.6 mg/kg, iv using compound labelled with cyanine-5 measured after 24 hrs by fluorescence based assay; type: ADME, organism-based; conditions: in vivo
[19] = Drug distribution in BALB/c mouse monocytes at 0.6 mg/kg, iv using compound labelled with cyanine-5 measured after 24 hrs by flow cytometry; type: ADME, organism-based, Monocyte; conditions: in vivo
[20] = Drug distribution in BALB/c mouse liver at […], ip using compound labelled with cyanine-5 measured after 24 hrs by fluorescence based assay; type: ADME, organism-based; conditions: in vivo, dose 2.4 mg/kg
[21] = Drug distribution in BALB/c mouse lung at […], ip using compound labelled with cyanine-5 measured after 24 hrs by fluorescence based assay; type: ADME, organism-based; conditions: dose 2.4 mg/kg, read-out: Drug uptake
[22] = Drug distribution in BALB/c mouse monocytes at […], ip using compound labelled with cyanine-5 measured after 24 hrs by flow cytometry; type: ADME, organism-based, Monocyte; conditions: in vivo, dose 2.4 mg/kg
[23] = Drug distribution in BALB/c mouse Non-T and B lymphocytes at […], ip using compound labelled with cyanine-5 measured after 24 hrs by flow cytometry; type: ADME, organism-based, Lymphocyte; conditions: in vivo, dose 2.4 mg/kg
[24] = Drug distribution in BALB/c mouse kidney at […], sc using compound labelled with cyanine-5 measured after 24 hrs by fluorescence based assay; type: ADME, organism-based; conditions: in vivo, dose 2.4 mg/kg
[25] = Drug distribution in BALB/c mouse spleen at […], sc using compound labelled with cyanine-5 measured after 24 hrs by fluorescence based assay; type: ADME, organism-based; conditions: in vivo, dose 2.4 mg/kg
[26] = Drug distribution in BALB/c mouse pancreas at […], sc using compound labelled with cyanine-5 measured after 24 hrs by fluorescence based assay; type: ADME, organism-based; conditions: dose 2.4 mg/kg, read-out: Drug uptake
[27] = Drug distribution in BALB/c mouse plasma at […], sc using compound labelled with cyanine-5 measured after 24 hrs by fluorescence based assay; type: ADME, organism-based; conditions: in vivo, dose 2.4 mg/kg
[28] = Drug distribution in BALB/c mouse Non-T and B lymphocytes at […], sc using compound labelled with cyanine-5 measured after 24 hrs by flow cytometry; type: ADME, organism-based, Lymphocyte; conditions: in vivo, dose 2.4 mg/kg
Mus musculus [29] = assay: Anti-inflammatory activity in BALB/c mouse model of LPS-induced ALI assessed as reduction in LPS-induced lung wet-to-dry ratios at 5 mg/kg, iv pre-treated 4 hrs before LPS stimulation for 16 hrs; type: functional, organism-based; conditions: time 20.0 hrs
Mus musculus [30] = assay: Anti-inflammatory activity in BALB/c mouse model of LPS-induced ALI assessed as reduction in LPS-induced TNFalpha in BALF at 5 mg/kg, iv pre-treated 4 hrs before LPS stimulation for 16 hrs; type: functional, organism-based; conditions: time 20.0 hrs
Mus musculus [31] = assay: Anti-inflammatory activity in BALB/c mouse model of LPS-induced ALI assessed as reduction in LPS-induced lung wet-to-dry ratios at 3 mg/kg dosed via intranasal instillation pre-treated 2 hrs before LPS stimulation for 6 hrs and measured at 24 hrs; type: functional, organism-based
Mus musculus [32] = assay: Anti-inflammatory activity in BALB/c mouse model of LPS-induced ALI assessed as reduction in LPS-induced IL6 in BALF at 3 mg/kg dosed via intranasal instillation pre-treated 2 hrs before LPS stimulation for 6 hrs and measured at 24 hrs; type: functional, organism-based
Mus musculus [33] = assay: Anti-inflammatory activity in BALB/c mouse model of LPS-induced ALI assessed as reduction in LPS-induced BALF protein levels at 0.3 to 3 mg/kg dosed via intranasal instillation pre-treated 2 hrs before LPS stimulation for 6 hrs; type: functional
Mus musculus [34] = assay: Anti-inflammatory activity in BALB/c mouse model of LPS-induced ALI assessed as effect on LPS-induced TNFalpha in kidney at 5 mg/kg, iv pre-treated 4 hrs before LPS stimulation for 16 hrs; type: functional, organism-based; conditions: time 20.0 hrs

Stabilty [1]: Stable
CL [4]: 16 h
inhibition (Homo sapiens): inactive
Drug uptake [8]: Tde
Drug degradation [9]: Tde
concentration [10]: < 5 nM
concentration at 8 h [11]: 13.5 nM
concentration at 8 h [12]: 15 nM
Drug uptake [13]: Not Active
Drug metabolism [14]: Metabolite_Detected
Drug uptake [15]: Active
concentration at 24 h [16]: > 50 nM
concentration at 24 h [17]: > 50 nM
Drug uptake [18]: Not Active
Drug uptake [19]: Active
Drug uptake [20]: Active
concentration at 24 h [21]: > 50 nM
Drug uptake [22]: Active
Drug uptake [23]: Active
Drug uptake [24]: Active
Drug uptake [25]: Active
concentration at 24 h [26]: > 50 nM
Drug uptake [27]: Not Active
Drug uptake [28]: Active
SMILES: CC[C@H](C)[C@H](NC(=O)[C@@H](NC(=O)c1ccnc(Cl)c1Cl)C(C)(C)C)C(=O)N[C@H](C(=O)N[C@H](C(=O)N[C@H](C(=O)N[C@@H](CCC(N)=O)C(=O)N[C@@H](Cc1c[nH]cn1)C(=O)N[C@H](CC(C)C)C(=O)N[C@@H](CO)C(=O)NCCOCCOCC(=O)N[C@@H](CCCCNC(=O)CC[C@@H]1NC(=O)[C@@H](CCCNC(=N)N)NC(=O)[C@H](CCCNC(=N)N)NC(=O)[C@@H](CCCNC(=N)N)NC(=O)[C@H](CCCNC(=N)N)NC(=O)[C@H](Cc2ccc3ccccc3c2)NC(=O)[C@@H](Cc2ccccc2)NC1=O)C(N)=O)[C@@H](C)O)[C@@H](C)CC)C(C)(C)O (I: X1-[Tle]I[Val(3-OH)]ITQH[dL]S[AEEA]K-NH2 / II: cyclo([2Nal]R[dR]R[dR]E[dF]); amide I:11-II:6)
Activity (HeLa): Non-Toxic
inhibition (Macrophage [2]): Dose-dependent effect
inhibition (Macrophage [3]): Dose-dependent effect
Activity [5]: Non-Toxic
fold change (FC) (Macrophage [6]): 10
Stability [7]: Stable
Activity (Mus musculus [29]): Active
Activity (Mus musculus [30]): Active
Activity (Mus musculus [31]): inactive
Activity (Mus musculus [32]): inactive
Activity (Mus musculus [33]; dose mg/kg 0.3-3, time 8.0 hrs): Dose-dependent effect
minimal effective dose (Mus musculus [33]; dose mg/kg 0.3-3, time 8 hrs, read-out: MED): 1 mg/kg
Activity (Mus musculus [34]): inactive
